Experimental data as given in ChEMBL document CHEMBL1125587, “Synthesis and antiviral and cytostatic properties of 3'-deoxy-3'-fluoro- and 2'-azido-3'-fluoro-2',3'-dideoxy-D-ribofuranosides of natural heterocyclic bases” (J Med Chem, 1991).
In brackets after ≈: the same amount, converted by molar mass.

Assays:
Vero [1] = experiment: Concentration (MIC), which is required to reduce virus-induced cytopathogenicity in African green monkey kidney (Vero B) cells against forest virus; format: functional; conditions: Chlorocebus sabaeus
Vero [2] = experiment: Concentration (MIC), which is required to reduce virus-induced cytopathogenicity in HeLa cells of African green monkey kidney (Vero B) cells against RNA viruses including para-influenza virus-3; format: functional; conditions: Chlorocebus sabaeus
[3] = Concentration (MIC), which is required to reduce virus-induced cytopathogenicity in Primary rabbit kidney (PRK ) cells against Vaccinia virus; format: functional; conditions: Oryctolagus cuniculus
Vero [4] = experiment: Concentration (MIC), which is required to reduce virus-induced cytopathogenicity in African green monkey kidney (Vero B) cells against Sindbis virus; format: functional; conditions: Chlorocebus sabaeus
[5] = Concentration (MIC), required to reduce virus-induced cytopathogenicity in Primary rabbit kidney (PRK ) cells against Vesicular stomatitis virus type 2; format: functional; conditions: Oryctolagus cuniculus
[6] = Concentration (MCC) required to cause a microscopically detectable alteration of normal cell morphology, in Primary rabbit kidney (PRK) cells; format: functional, Oryctolagus cuniculus
[7] = Concentration (MIC), required to reduce virus-induced cytopathogenicity in Primary rabbit kidney (PRK ) cells against Vesicular stomatitis virus type 1; format: functional; conditions: Oryctolagus cuniculus
HeLa [8] = experiment: Concentration (MCC) required to cause a microscopically detectable alteration of normal cell morphology, in HeLa cells; format: functional; conditions: Homo sapiens
Vero [9] = experiment: Concentration (MCC) required to cause a microscopically detectable alteration of normal cell morphology, African green monkey kidney (Vero B) cells; format: functional; conditions: Chlorocebus sabaeus
Vero [10] = experiment: Concentration (MIC), which is required to reduce virus-induced cytopathogenicity in African green monkey kidney (Vero B) cells against Coxsackie virus-B4; format: functional, Chlorocebus sabaeus
HeLa [11] = experiment: Concentration (MIC), which is required to reduce virus-induced cytopathogenicity in HeLa cells against Polio virus type-1; format: functional; conditions: Homo sapiens
[12] = Concentration (MIC)required to reduce virus-induced cytopathogenicity in Primary rabbit kidney (PRK ) cells against HSV-1 with a strain KOS; format: functional; conditions: Oryctolagus cuniculus
Vero [13] = experiment: Concentration (MIC), which is required to reduce virus-induced cytopathogenicity in African green monkey kidney (Vero B) cells against Reo-virus-1; format: functional; conditions: Chlorocebus sabaeus
[14] = Concentration (MIC)required to reduce virus-induced cytopathogenicity in Primary rabbit kidney (PRK ) cells against HSV-2 with strain G; format: functional; conditions: Oryctolagus cuniculus
[15] = Concentration (MIC)required to reduce virus-induced cytopathogenicity in Primary rabbit kidney (PRK ) cells against HSV-2 with a strain G; format: functional; conditions: Oryctolagus cuniculus
Vero [16] = experiment: Concentration (MIC), which is required to reduce virus-induced cytopathogenicity in African green monkey kidney (Vero B) cells against para-influenza virus-3; format: functional; conditions: Chlorocebus sabaeus
HeLa [17] = experiment: Concentration (MIC), which is required to reduce virus-induced cytopathogenicity in HeLa cells o against Polio virus type-1; format: functional; conditions: Homo sapiens
Raji = experiment: Concentration required to reduce the viability of Human B-lymphoblast Raji cells; format: functional, cell-based
MT4 = experiment: Concentration required to reduce the viability of Human T-lymphoblast MT-4 cells; format: functional, cell-based
L1210 = experiment: Concentration required to reduce the viability of Murine leukemia L1210 cells; format: functional, cell-based; conditions: Mus musculus
MOLT-4F = experiment: Concentration required to reduce the viability of Human T-lymphoblast Molt/4F cells; format: functional, cell-based
[18] = Concentration (MIC), required to reduce virus-induced cytopathogenicity in HeLa cells of Primary rabbit kidney (PRK ) cells against Vesicular stomatitis virus type 2; format: functional; conditions: Oryctolagus cuniculus
[19] = Concentration (MIC), which is required to reduce virus-induced cytopathogenicity in HeLa cells of Primary rabbit kidney (PRK ) cells against DNA viruses including Vaccinia virus; format: functional; conditions: Oryctolagus cuniculus
Vero [20] = experiment: Concentration (MIC), which is required to reduce virus-induced cytopathogenicity in African green monkey kidney (Vero B) cells against RNA viruses including Coxsackie virus-B4; format: functional; conditions: Chlorocebus sabaeus
HeLa [21] = experiment: Concentration (MIC), which is required to reduce virus-induced cytopathogenicity in Primary rabbit kidney (PRK ) cells against Polio virus type-1; format: functional; conditions: Homo sapiens
[22] = Concentration (MIC), required to reduce virus-induced cytopathogenicity in HeLa cells of Primary rabbit kidney (PRK ) cells against Vesicular stomatitis virus type 1; format: functional; conditions: Oryctolagus cuniculus
[23] = Concentration (MIC)required to reduce virus-induced cytopathogenicity in Primary rabbit kidney (PRK ) cells against including HSV-2 with a strain G; format: functional; conditions: Oryctolagus cuniculus
[24] = Chlorocebus sabaeus, read-out: MIC

Compound | MIC (Vero [1]) | MIC [3] | MIC (Vero [4]) | MIC [5] | MCC [6] | MIC [7] | MCC (HeLa [8]) | MCC (Vero [9]) | MIC (Vero [10]; [24]) | MIC (HeLa [11]) | MIC [12] | MIC (Vero [13]) | MIC [15] | MIC (Vero [16]) | IC50 (Raji) | IC50 (MT4) | IC50 (L1210) | IC50 (MOLT-4F) | also measured
Cc1cn([C@H]2O[C@H](CO)[C@@H](F)[C@H]2N=[N+]=[N-])c(=O)[nH]c1=O | > 400 µg/mL | > 400 µg/mL | > 400 µg/mL | > 400 µg/mL | >400 µg/mL | < 400 µg/mL | > 400 µg/mL | > 400 µg/mL | > 400 µg/mL | > 400 µg/mL | > 400 µg/mL | > 400 µg/mL |  |  |  |  |  |  | MIC (Vero [2]): > 400 µg/mL; MIC [14]: > 400 µg/mL
Cc1cn([C@@H]2O[C@H](CO)[C@@H](F)[C@H]2N=[N+]=[N-])c(=O)[nH]c1=O | > 400 µg/mL | > 400 µg/mL | > 400 µg/mL | > 400 µg/mL | >400 µg/mL | > 400 µg/mL | > 400 µg/mL | > 400 µg/mL | > 400 µg/mL | > 400 µg/mL | > 400 µg/mL | > 400 µg/mL | > 400 µg/mL | > 400 µg/mL |  |  |  |  | 
Nc1ccn([C@@H]2O[C@H](CO)[C@H](F)[C@H]2O)c(=O)n1 | > 400 µg/mL | > 400 µg/mL | 300 µg/mL (≈ 1220 µM) |  | >400 µg/mL | > 400 µg/mL | > 400 µg/mL | > 400 µg/mL | 150 µg/mL (≈ 612 µM) |  | > 400 µg/mL | 150 µg/mL (≈ 612 µM) | > 400 µg/mL | > 400 µg/mL | 98 µg/mL (≈ 400 µM) | 7.9 µg/mL (≈ 32.2 µM) | 39 µg/mL (≈ 159 µM) | 65 µg/mL (≈ 265 µM) | MIC (HeLa [17]): 150 µg/mL (≈ 612 µM); MIC (Vero [10]): 300 µg/mL (≈ 1220 µM); MIC [18]: 300 µg/mL (≈ 1220 µM)
O=c1ccn([C@@H]2O[C@H](CO)[C@@H](F)[C@H]2O)c(=O)[nH]1 | > 400 µg/mL |  | 300 µg/mL (≈ 1220 µM) | > 400 µg/mL | >400 µg/mL | > 400 µg/mL | > 400 µg/mL | > 400 µg/mL | 300 µg/mL (≈ 1220 µM) | 150 µg/mL (≈ 609 µM) | > 400 µg/mL | 150 µg/mL (≈ 609 µM) | > 400 µg/mL | > 400 µg/mL | > 100 µg/mL | 6.9 µg/mL (≈ 28 µM) | > 100 µg/mL | > 100 µg/mL | MIC [19]: > 400 µg/mL; MIC (Vero [20]): 300 µg/mL (≈ 1220 µM)
[N-]=[N+]=NC1C(F)C(CO)OC1n1ccc(N)nc1=O (centres undefined) | > 400 µg/mL | > 400 µg/mL | > 400 µg/mL | > 400 µg/mL | >400 µg/mL | > 300 µg/mL | > 400 µg/mL | > 400 µg/mL | > 400 µg/mL | > 400 µg/mL | > 400 µg/mL | > 400 µg/mL | > 400 µg/mL | > 400 µg/mL |  |  |  |  | 
Nc1nc(O)c2ncn([C@@H]3O[C@H](CO)[C@@H](F)[C@H]3O)c2n1 | 40 µg/mL (≈ 140 µM) | 10 µg/mL (≈ 35.1 µM) | 40 µg/mL (≈ 140 µM) | > 200 µg/mL | 200 µg/mL | > 200 µg/mL | > 400 µg/mL | 400 µg/mL |  |  | > 100 µg/mL | > 200 µg/mL | > 100 µg/mL | > 100 µg/mL | 29 µg/mL (≈ 102 µM) | > 100 µg/mL | 5 µg/mL (≈ 17.5 µM) | 75 µg/mL (≈ 263 µM) | MIC (HeLa [21]): 150 µg/mL (≈ 526 µM)
[N-]=[N+]=NC1C(F)C(CO)OC1n1cnc2c(N)ncnc21 (centres undefined) | > 200 µg/mL | 300 µg/mL (≈ 1020 µM) | > 200 µg/mL | > 200 µg/mL | >400 µg/mL |  | > 400 µg/mL | > 400 µg/mL | 300 µg/mL (≈ 1020 µM) | > 200 µg/mL | > 400 µg/mL | > 200 µg/mL |  | > 200 µg/mL |  |  |  |  | MIC [22]: 300 µg/mL (≈ 1020 µM); MIC [23]: > 200 µg/mL; MIC (Vero [10]): >200 µg/mL
Nc1ncnc2c1ncn2[C@@H]1O[C@H](CO)[C@@H](F)[C@H]1O | 4 µg/mL (≈ 14.9 µM) | 2 µg/mL (≈ 7.43 µM) | 4 µg/mL (≈ 14.9 µM) | > 10 µg/mL | >40 µg/mL |  | 40 µg/mL | 40 µg/mL |  | 4 µg/mL (≈ 14.9 µM) | > 10 µg/mL | 1 µg/mL (≈ 3.71 µM) | > 10 µg/mL | > 4 µg/mL | 3.9 µg/mL (≈ 14.5 µM) | 0.22 µg/mL (≈ 0.817 µM) | 1.6 µg/mL (≈ 5.94 µM) | 28 µg/mL (≈ 104 µM) | MIC [22]: > 40 µg/mL
